Measurements taken from patent US20240132522A1, “HETEROCYCLIC COMPOUNDS AND METHODS OF USE THEREOF” (1cBio, Inc., priority 2022, published 2024).
Structures can show the parent of a compound that is named as a salt.

Molecular target: recombinant human PARP2 (Homo sapiens, UniProt Q9UGN5)
Assay: PARP2 fluorescence polarization binding assay
Conditions: binding IC50, GST-tagged PARP2 20 nM, PARPi-FL probe 3 nM, 4 h at RT
Method: In some embodiments, the biological assay measures PARP-2 binding by way of fluorescence polarization measurements. In some embodiments, binding of a test compound to recombinant human PARP-2 reduces the amount of binding of a fluorescent probe, and consequently reduces the detected level of fluorescence polarization. […] In some embodiments, the serial dilutions, e.g., 100 nL of serial dilution, 90 nL of serial dilution, 80 nL of serial dilution, 70 nL of serial dilution, 60 nL of serial dilution, 50 nL of serial dilution, 30 nL of serial dilution, 20 nL of serial dilution, or 10 nL of serial dilution, are added to a multi-welled plate, e.g., a 1536-well plate, a 384-well plate, or a 96-well plate. In some embodiments, PARP-2, e.g., GST-tagged PARP-2, is diluted in assay buffer, e.g., 50 μL of assay buffer, 40 μL of assay buffer, e.g., 30 μL of assay buffer, 20 μL of assay buffer, 10 μL of assay buffer, or 5 μL of assay buffer, and is added to the plate. In some embodiments, the plate is centrifuged, e.g., at 1000 rpm for 1 min, and incubated, e.g., incubated for 30 minutes at room temperature (RT). In some embodiments, a fluorescent probe, e.g., 10 μL of 6 nM PARPi-FL (TOCRIS, Cat #6461), is diluted in an assay buffer and is added to the plate. […] In some embodiments, the plate is centrifuged, e.g., at 1000 rpm for 1 minute, and the assay plate is incubated, e.g., for 4 h at RT. In some embodiments, the samples in each well are read using a plate reader, e.g., an Envision instrument using excitation=480 nm, and emission wavelength=FITC FP-P pol 535 nm & FITC FP-S pol 535 nm). […] In some embodiments, binding IC50 values are calculated using XLFit (equation 201: […])^D))), where A=bottom, B=top, C=IC50, and D=slope) with a floating top and bottom for curves. Compounds of the present disclosure were tested in a PARP2 fluorescence polarization binding assay at Pharmaron (Beijing, P.R. China). In this biochemical assay, binding of test compound to recombinant human PARP2 reduces the amount of binding of a fluorescent probe, and consequently reduces the detected level of fluorescence polarization. Test compound stock solutions were prepared in DMSO and then serially diluted into 10 concentrations by 3-fold dilution in a 384-well plate using a TECAN EVO200. […] Samples in each well were read using an Envision instrument (Perkin-Elmer; Ex=480 nm Em=FITC FP-P pol 535 nm & FITC FP-S pol 535 nm). […] Binding IC50 values were calculated using XLFit (equation 201: […])^D))), where A=bottom, B=top, C=IC50, and D=slope) with a floating top and bottom for curves.

recombinant human PARP2, sequence (Q9UGN5 whole entry): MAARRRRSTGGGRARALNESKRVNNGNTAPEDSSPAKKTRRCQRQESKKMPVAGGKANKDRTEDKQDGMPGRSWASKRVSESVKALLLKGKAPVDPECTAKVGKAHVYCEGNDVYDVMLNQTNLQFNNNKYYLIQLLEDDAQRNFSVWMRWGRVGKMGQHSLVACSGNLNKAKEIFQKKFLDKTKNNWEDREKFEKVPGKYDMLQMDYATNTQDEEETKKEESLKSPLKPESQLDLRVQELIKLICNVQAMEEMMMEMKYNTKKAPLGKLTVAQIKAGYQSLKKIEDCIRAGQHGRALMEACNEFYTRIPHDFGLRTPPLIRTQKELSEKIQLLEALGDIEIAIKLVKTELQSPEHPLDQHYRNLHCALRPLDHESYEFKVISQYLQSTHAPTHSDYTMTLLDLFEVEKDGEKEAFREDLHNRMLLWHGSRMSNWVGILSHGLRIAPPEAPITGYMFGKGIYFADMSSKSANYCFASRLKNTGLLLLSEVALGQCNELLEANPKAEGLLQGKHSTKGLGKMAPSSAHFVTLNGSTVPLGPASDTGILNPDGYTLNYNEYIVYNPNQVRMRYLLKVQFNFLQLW

| Compound | IC50 |
| --- | --- |
| CCc1cc2ncc(CN3CC4CN(c5ccc(C(=O)NC)nc5)CC4C3)cc2[nH]c1=O (stereo not shown) [Compound No. 7, 5-(5-((7-ethyl-6-oxo-5,6-dihydro-1,5-naphthyridin-3-yl)methyl)hexahydropyrrolo[3,4-c]pyrrol-2(1H)-yl)-N-methylpicolinamide] | ≥ 3 µM |
| CCc1cc2ncc(CN3CC4(C3)CN(c3ccc(C(=O)NC)nc3)C4)cc2[nH]c1=O [Compound No. 9, 5-(6-((7-ethyl-6-oxo-5,6-dihydro-1,5-naphthyridin-3-yl)methyl)-2,6-diazaspiro[3.3]heptan-2-yl)-N-methylpicolinamide formate] | ≥ 3 µM |
| CCc1cc2ncc(CNC3CC(Nc4ccc(C(=O)NC)nc4)C3)cc2[nH]c1=O (stereo not shown) [Compound No. 29, 5-((3-(((7-ethyl-6-oxo-5,6-dihydro-1,5-naphthyridin-3-yl)methyl)amino)cyclobutyl)amino)-N-methylpicolinamide] | ≥ 3 µM |
| CCc1cc2ncc(CN3CCCN(c4ccc(C(=O)NC)nc4)CC3)cc2[nH]c1=O [Compound No. 6, 5-(4-((7-ethyl-6-oxo-5H-1,5-naphthyridin-3-yl)methyl)-1,4-diazepan-1-yl)-N-methylpyridine-2-carboxamide] | ≥ 3 µM |
